From patent US8962637B2, “Bicyclic compounds and their uses as dual c-SRC/JAK inhibitors” (Debiopharm S.A., priority 2010, dated 2015)
pEC50, pIC50: −log10 of the molar value.

Columns and labels:
JAK1 = JAK1 (Homo sapiens (Human), UniProt P23458); test: JAK1 kinase inhibition; assay type: biochemical; conditions: for inhibition at 0.1 µM: read-out: JAK1 % inhibition at 100 nM; for inhibition at 1 µM: read-out: JAK1 % inhibition at 1 μM
JAK2 = JAK2 (Homo sapiens (Human), UniProt O60674); test: TR-FRET JAK2 kinase assay; assay type: biochemical; conditions: ATP 10 μM; for inhibition at 0.1 µM: read-out: JAK2 % inhibition at 100 nM, 100 nM; for inhibition at 1 µM: read-out: JAK2 % inhibition at 1 μM
JAK2, sequence (O60674 whole entry): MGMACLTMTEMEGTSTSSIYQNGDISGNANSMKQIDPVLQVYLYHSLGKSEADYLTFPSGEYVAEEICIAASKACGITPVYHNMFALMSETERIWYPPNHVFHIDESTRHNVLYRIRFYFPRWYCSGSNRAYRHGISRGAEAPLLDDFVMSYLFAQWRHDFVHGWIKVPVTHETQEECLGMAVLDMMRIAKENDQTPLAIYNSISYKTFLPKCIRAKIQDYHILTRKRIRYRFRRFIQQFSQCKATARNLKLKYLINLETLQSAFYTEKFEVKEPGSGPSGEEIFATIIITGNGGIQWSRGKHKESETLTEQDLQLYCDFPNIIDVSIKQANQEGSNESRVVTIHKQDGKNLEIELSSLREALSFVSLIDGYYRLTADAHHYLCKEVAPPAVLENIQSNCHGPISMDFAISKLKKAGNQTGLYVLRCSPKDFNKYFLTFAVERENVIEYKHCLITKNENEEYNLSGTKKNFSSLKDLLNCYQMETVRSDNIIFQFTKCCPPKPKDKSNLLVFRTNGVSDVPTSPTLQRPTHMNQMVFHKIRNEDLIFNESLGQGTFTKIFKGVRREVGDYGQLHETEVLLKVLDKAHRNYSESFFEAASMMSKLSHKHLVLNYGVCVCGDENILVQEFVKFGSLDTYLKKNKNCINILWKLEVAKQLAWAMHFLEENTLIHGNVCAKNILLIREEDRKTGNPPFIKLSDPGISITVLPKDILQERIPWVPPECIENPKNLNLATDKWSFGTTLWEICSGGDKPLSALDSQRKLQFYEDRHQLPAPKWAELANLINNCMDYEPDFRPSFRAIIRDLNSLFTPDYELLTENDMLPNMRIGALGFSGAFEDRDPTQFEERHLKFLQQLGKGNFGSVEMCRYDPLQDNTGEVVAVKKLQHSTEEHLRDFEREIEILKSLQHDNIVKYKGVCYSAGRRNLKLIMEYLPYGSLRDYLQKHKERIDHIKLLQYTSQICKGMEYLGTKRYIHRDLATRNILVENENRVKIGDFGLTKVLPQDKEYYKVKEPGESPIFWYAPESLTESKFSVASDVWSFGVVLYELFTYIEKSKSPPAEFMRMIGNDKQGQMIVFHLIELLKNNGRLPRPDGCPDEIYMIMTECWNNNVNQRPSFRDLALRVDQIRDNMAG
Description: (§1) Compounds were screened in the TR-FRET assay for JAK2 and c-Src kinase inhibition. Ultra light poly GT (Perkin Elmer) was used as the substrate for JAK2 and c-Src with the ATP concentration of 10 μM and 50 μM, respectively. […] The dose-response curve fitting was done using GraphPad Prism software.

c-Src = c-Src (Homo sapiens (Human), UniProt P12931); test: TR-FRET c-Src kinase assay; assay type: biochemical; conditions: ATP 50 μM; for inhibition at 0.1 µM: read-out: c-SRC % inhibition at 100 nM, 100 nM; for inhibition at 1 µM: read-out: c-SRC % inhibition at 1 μM
c-Src, sequence (P12931 whole entry, looked up): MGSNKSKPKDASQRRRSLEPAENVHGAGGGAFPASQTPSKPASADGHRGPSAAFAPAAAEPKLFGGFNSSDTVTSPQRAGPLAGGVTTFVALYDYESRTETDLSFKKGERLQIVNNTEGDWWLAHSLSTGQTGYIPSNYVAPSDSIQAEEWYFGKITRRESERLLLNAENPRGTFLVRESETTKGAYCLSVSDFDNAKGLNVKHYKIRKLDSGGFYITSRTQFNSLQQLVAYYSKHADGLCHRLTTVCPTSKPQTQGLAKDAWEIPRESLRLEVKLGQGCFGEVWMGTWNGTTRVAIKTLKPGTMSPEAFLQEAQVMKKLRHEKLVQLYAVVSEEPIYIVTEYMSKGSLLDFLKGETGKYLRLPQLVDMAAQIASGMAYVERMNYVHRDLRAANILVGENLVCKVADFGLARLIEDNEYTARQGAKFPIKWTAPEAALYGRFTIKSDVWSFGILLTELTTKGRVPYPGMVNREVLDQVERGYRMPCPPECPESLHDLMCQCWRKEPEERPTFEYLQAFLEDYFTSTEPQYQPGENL
Description: as §1

Mda-Mb-231 cells = test: Cell viability assay (XTT assay), Mda-Mb-231; assay type: cell-based; conditions: Homo sapiens, 72 hrs
Description: Mda-Mb-231 or A549 cells were seeded onto a 96-well micro plate. Next day compounds were added to cells and incubated for 72 hrs. Compound treatment was done in triplicates. After 72 hrs cell culture media was aspirated from the wells and XTT working solution was added and plates were incubated for 2-5 hrs. The absorbance of the samples was measured with a spectrophotometer at a wavelength of 465 nm. EC50 values were calculated using Graphpad Prism. Tumor cell lines used in the examples of the present invention were procured from ATCC. Description of the cell lines is included in the following table: […]

A431 cancer cell line = test: Inhibition of cell growth in A431; assay type: cell-based; conditions: Homo sapiens, A-431
pStat3 = test: In-Cell-Western blot assay for pStat3 (ICW) in A431 cells; assay type: cell-based; conditions: Homo sapiens, A-431, 2 hrs, read-out: pSTAT3 inhibition
Description: A431 cells were seeded onto a 96-well micro plate. After overnight serum starvation cells were incubated with compounds for 2 hrs. Cells were fixed with 4% paraformaldehyde in PBS and then permeabilized with 0.1% Triton X-100 in PBS (PBST). Cells were blocked with 5% BSA in PBST for 2 hrs, followed by overnight incubation with phospho Stat3 antibody. Cells were washed and incubated with europium-labeled anti-rabbit secondary antibody for 2 hrs. After washing enhancement solution was added to the wells. The micro-plate was read on the Victor instrument at the Europium setting. The Hoechst readings were used to normalize for cell number. IC50 values were calculated with the normalized europium values using Graphpad Prism.

JAK1, sequence (P23458 whole entry): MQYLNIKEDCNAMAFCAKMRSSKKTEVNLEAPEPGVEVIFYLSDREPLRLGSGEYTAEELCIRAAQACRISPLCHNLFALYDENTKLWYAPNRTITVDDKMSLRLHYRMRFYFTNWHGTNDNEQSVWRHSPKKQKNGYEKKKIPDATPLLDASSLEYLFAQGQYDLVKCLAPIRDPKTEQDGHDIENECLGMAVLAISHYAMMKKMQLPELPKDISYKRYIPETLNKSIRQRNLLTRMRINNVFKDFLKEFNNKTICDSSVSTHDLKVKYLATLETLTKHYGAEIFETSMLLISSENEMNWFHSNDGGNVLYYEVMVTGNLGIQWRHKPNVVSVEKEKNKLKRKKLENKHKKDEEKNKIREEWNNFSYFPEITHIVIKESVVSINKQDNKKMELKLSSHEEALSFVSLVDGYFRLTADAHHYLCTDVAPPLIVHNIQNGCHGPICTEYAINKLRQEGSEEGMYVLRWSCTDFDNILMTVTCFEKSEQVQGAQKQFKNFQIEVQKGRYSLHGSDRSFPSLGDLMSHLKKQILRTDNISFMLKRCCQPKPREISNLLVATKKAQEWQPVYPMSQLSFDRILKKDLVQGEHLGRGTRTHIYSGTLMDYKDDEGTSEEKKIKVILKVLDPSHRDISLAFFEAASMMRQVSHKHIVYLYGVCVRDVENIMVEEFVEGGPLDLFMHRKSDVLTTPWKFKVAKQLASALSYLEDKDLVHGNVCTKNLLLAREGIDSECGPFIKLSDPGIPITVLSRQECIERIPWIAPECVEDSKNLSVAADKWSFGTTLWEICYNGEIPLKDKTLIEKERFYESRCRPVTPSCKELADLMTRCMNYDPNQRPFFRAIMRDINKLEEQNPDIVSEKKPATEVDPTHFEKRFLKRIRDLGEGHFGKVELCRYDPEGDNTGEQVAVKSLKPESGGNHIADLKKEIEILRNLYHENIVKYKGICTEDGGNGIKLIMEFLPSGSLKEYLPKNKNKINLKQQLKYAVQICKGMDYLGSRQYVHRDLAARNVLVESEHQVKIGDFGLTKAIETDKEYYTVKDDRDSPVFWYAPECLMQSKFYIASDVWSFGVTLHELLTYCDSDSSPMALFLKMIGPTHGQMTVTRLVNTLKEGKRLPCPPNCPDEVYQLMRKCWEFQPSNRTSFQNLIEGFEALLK

Structure (SMILES)	inhibition at 0.1 µM (JAK1) [%]	inhibition at 1 µM (JAK1) [%]	pIC50 (c-Src)	pEC50 (Mda-Mb-231 cells)	pEC50 (A431 cancer cell line)	pIC50 (JAK2)	pIC50 (pStat3)	further results
Cc1ccc(NC(=O)c2cccc(C(F)(F)F)c2)cc1N1CCc2nc(Nc3ccc(OCCN4CCCC4)cc3)ncc2C1 [Compound 9, N-(4-Methyl-3-{2-[4-(2-pyrrolidin-1-yl-ethoxy)-phenylamino]-7,8-dihydro-5H-pyrido[4,3-d]pyrimidin-6-yl}-phenyl)-3-trifluoromethyl-benzamide]	58	85						
Cc1ccc(NC(=O)c2cccc(C(F)(F)F)c2)cc1N1CCc2nc(Nc3ccncc3)ncc2C1 [Compound 15, N-{4-Methyl-3-[2-(pyridin-4-ylamino)-7,8-dihydro-5H-pyrido[4,3-d]pyrimidin-6-yl]-phenyl}-3-trifluoromethyl-benzamide]	49	73						
Cc1ccc(NC(=O)c2cccc(C(F)(F)F)c2)cc1N1CCc2nc(Nc3ccc4c(c3)CCC(=O)N4)ncc2C1 [Compound 18, N-{4-Methyl-3-[2-(2-oxo-1,2,3,4-tetrahydro-quinolin-6-ylamino)-7,8-dihydro-5H-pyrido[4,3-d]pyrimidin-6-yl]-phenyl}-3-trifluoromethyl-benzamide]	82	89						
Cc1ccc(NC(=O)c2cccc(C(F)(F)F)c2)cc1N1CCc2nc(Nc3cccnc3)ncc2C1 [Compound 23, N-{4-Method-3-[2-(pyridin-3-ylamino)-7,8-dihydro-5H-pyrido[4,3-d]pyrimidin-6-yl]-phenyl}-3-trifluoromethyl-benzamide]	84	88						
Cc1ccc(NC(=O)c2cccc(C(F)(F)F)c2)cc1N1CCc2nc(Nc3ccnc(Cl)c3)ncc2C1 [Compound 25, N-{3-[2-(2-Chloro-pyridin-4-ylamino)-7,8-dihydro-5H-pyrido[4,3-d]pyrimidin-6-yl]-4-methyl-phenyl}-3-trifluoromethyl-benzamide]	58	96						
Cc1ccc(NC(=O)c2cccc(C(F)(F)F)c2)cc1N1CCc2nc(Nc3ccncc3)ncc2C1=O [Compound 26, N-{4-Methyl-3-[5-oxo-2-(pyridin-4-ylamino)-7,8-dihydro-5H-pyrido[4,3-d]pyrimidin-6-yl]-phenyl}-3-trifluoromethyl-benzamide]	57	79						
Cc1ccc(C(=O)Nc2cccc(C(F)(F)F)c2)cc1N1CCc2nc(Nc3ccc(Cl)cc3)ncc2C1 [Compound 28]								JAK1 % inhibition at 100 nM (JAK1; 100 nM): 66%; JAK1 % inhibition at 1 μM (JAK1; 1 μM): 79%
Cc1ccc(NC(=O)c2cccc(C(F)(F)F)c2)cc1N1CCc2nc(Nc3ccc(C(=O)N4CCN(C)CC4)cc3)ncc2C1=O [Compound 75, N-(4-Methyl-3-{2-[4-(4-methyl-piperazine-1-carbonyl)-phenylamino]-5-oxo-7,8-dihydro-5H-pyrido[4,3-d]pyrimidin-6-yl}-phenyl)-3-trifluoromethylbenza-mide]			7.72	5.33	5.97			inhibition at 0.1 µM (JAK2): 83%; inhibition at 1 µM (JAK2): 97%

Now from value to molecule, other results behind:

inhibition at 0.1 µM (JAK1) [%]	inhibition at 1 µM (JAK1) [%]	pIC50 (c-Src)	pEC50 (Mda-Mb-231 cells)	pEC50 (A431 cancer cell line)	pIC50 (JAK2)	pIC50 (pStat3)	Structure (SMILES)	further results
		7.52	5.67	6.87	7.21	6.89	Cc1ccc(NC(=O)c2cccc(C(F)(F)F)c2)cc1N1CCc2nc(Nc3ccc(CC(=O)N4CCN(C)CC4)cc3)ncc2C1=O [Compound 76, N-[4-Methyl-3-(2-{4-[2-(4-methyl-piperazin-1-yl)-2-oxo-ethyl]-phenylamino}-5-oxo-7,8-dihydro-5H-pyrido[4,3-d]pyrimidin-6-yl)-phenyl]-3-trifluoromethylbenza-mide]	
		7.77	5.31	6.29		6.29	Cc1ccc(NC(=O)c2cccc(C(F)(F)F)c2)cc1N1CCc2nc(Nc3ccc(C(=O)NCCCN4CCCC4)cc3)ncc2C1=O [Compound 77, N-(4-methyl-3-(5-oxo-2-(4-(3-(pyrrolidin-1-yl)propylcarbamoyl)phenylamino)-7,8-dihydropyrido[4,3-d]pyrimidin-6(5H)-yl)phenyl)-3-(trifluoromethyl) benzamide]	inhibition at 0.1 µM (JAK2): 80%; inhibition at 1 µM (JAK2): 96%
		8.40	6.52	6.62	7.49	6.62	CNC(=O)c1ccc(Nc2ncc3c(n2)CCN(c2cc(NC(=O)c4cccc(C(F)(F)F)c4)ccc2C)C3)cn1 [Compound 83, 5-{6-[2-Methyl-5-(3-trifluoromethyl-benzoylamino)-phenyl]-5,6,7,8-tetrahydro-pyrido[4,3-d]pyrimidin-2-ylamino}-pyridine-2-carboxylic acid methylamide]	
			8.30	7.59		7.59	Cc1ccc(NC(=O)c2cccc(C(F)(F)F)c2)cc1N1CCc2nc(Nc3ccc(C(=O)NC4CCN(C)CC4)cc3)ncc2C1 [Compound 92]	
		8.70	7.30	6.74	7.72	6.80	Cc1ccc(NC(=O)c2cccc(C(F)(F)F)c2)cc1N1CCc2nc(Nc3cncnc3)ncc2C1 [Compound 94, N-{4-Methyl-3-[2-(pyrimidin-5-ylamino)-7,8-dihydro-5H-pyrido[4,3-d]pyrimidin-6-yl]-phenyl}-3-trifluoromethyl-benzamide]	
		9.00	7.30	7.21	8.15	7.22	Cc1ccc(NC(=O)c2cccc(C(F)(F)F)c2)cc1N1CCc2nc(Nc3ccc(C(=O)NCCO)cc3)ncc2C1 [Compound 98]	
			6.42		8.10	6.55	Cc1ccc(NC(=O)c2cccc(C(F)(F)F)c2)cc1N1CCc2nc(Nc3ccc(C(N)=O)nc3)ncc2C1 [Compound 119, 5-{6-[2-Methyl-5-(3-trifluoromethyl-benzoylamino)-phenyl]-5,6,7,8-tetrahydro-pyrido[4,3-d]pyrimidin-2-ylamino)-pyridine-2-carboxylic acid amide]	inhibition at 0.1 µM (c-Src): 95%; inhibition at 1 µM (c-Src): 98%
		8.52	6.08		8.05	6.72	Cc1ccc(NC(=O)CC(C)C(F)(F)F)cc1N1CCc2nc(Nc3ccc(N4CCN(C)CC4)cc3)ncc2C1 (stereo not drawn) [Compound 123, 4,4,4-Trifluoro-3-methyl-N-(4-methyl-3-{2-[4-(4-methyl-piperazin-1-yl)-phenylamino]-7,8-dihydro-5H-pyrido[4,3-d]pyrimidin-6-yl}-phenyl)-butyramide]	
		8.22	6.43		8.30	6.46	Cc1ccc(NC(=O)c2cc(C(F)(F)F)ccn2)cc1N1CCc2nc(Nc3ccc(N4CCN(C)CC4)cc3)ncc2C1 [Compound 146, 4-Trifluoromethyl-pyridine-2-carboxylic acid (4-methyl-3-{2-[4-(4-methyl-piperazin-1-yl)-phenylamino]-7,8-dihydro-5H-pyrido[4,3-d]pyrimidin-6-yl}-phenyl)-amide]	
		7.77	5.76		8.15	6.82	Cc1ccc(NC(=O)c2cccc(C(F)(F)F)c2)cc1N1CCc2nc(Nc3ccc(N4CCNCC4)cc3)ncc2C1=O [Compound 178, N-{4-Methyl-3-[5-oxo-2-(4-piperazin-1-yl-phenylamino)-7,8-dihydro-5H-pyrido[4,3-d]pyrimidin-6-yl]-phenyl}-3-trifluoromethyl-benzamide]	inhibition at 0.1 µM (JAK2): 91%; inhibition at 1 µM (JAK2): 92%; inhibition at 0.1 µM (c-Src): 77%; inhibition at 1 µM (c-Src): 90%
